Activity calls are given as the source filed them. Rule as the data show it, for most assays here: actives have a measured EC50 and inactives only a lower limit.
Tests used:
[1] = biological target: ATP-dependent molecular chaperone HSP82 (Candida albicans (strain WO-1) (Yeast), UniProt C4YTQ8); experiment: loss of DOC-induced GRE-beta-galactosidase reporter signal, dose response, Hsp90 inhibitor project, S. cerevisiae, luminescence (AID 2400); assay type: functional, cell-based;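 also: beta-galactosidase luminescence from glucocorticoid response element reporter as proxy for Hsp90 function; inhibitor potency where signal loss means Hsp90 inhibition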
Chain of ATP-dependent molecular chaperone HSP82 (C4YTQ8 whole entry): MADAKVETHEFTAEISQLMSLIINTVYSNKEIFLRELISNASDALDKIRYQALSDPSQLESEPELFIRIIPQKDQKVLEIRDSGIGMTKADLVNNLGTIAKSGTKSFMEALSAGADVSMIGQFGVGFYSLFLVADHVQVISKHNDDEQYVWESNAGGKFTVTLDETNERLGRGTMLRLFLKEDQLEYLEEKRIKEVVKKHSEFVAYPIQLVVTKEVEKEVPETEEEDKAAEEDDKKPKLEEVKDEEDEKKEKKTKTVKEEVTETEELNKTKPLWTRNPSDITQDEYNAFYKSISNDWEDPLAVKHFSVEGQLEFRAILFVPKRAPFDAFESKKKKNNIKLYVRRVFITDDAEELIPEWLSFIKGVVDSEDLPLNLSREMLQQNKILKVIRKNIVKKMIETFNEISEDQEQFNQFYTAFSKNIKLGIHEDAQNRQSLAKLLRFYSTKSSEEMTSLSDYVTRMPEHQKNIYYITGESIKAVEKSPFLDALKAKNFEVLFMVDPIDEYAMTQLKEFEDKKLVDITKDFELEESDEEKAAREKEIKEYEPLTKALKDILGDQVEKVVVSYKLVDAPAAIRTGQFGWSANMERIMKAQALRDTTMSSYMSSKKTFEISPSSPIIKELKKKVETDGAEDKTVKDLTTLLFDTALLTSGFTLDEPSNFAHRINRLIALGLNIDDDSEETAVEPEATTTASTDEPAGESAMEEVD

[2] = biological target: Serine/threonine-protein phosphatase (Candida dubliniensis (strain CD36 / CBS 7987 / NCPF 3949 / NRRLY-17841) (Yeast), UniProt B9W6M3); experiment: calcineurin pathway inhibitors in yeast reporter, dose response, S. cerevisiae, CDRE-lacZ, luminescence, secondary (AID 2388); assay type: functional, cell-based;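 also: yeast reporter cells carrying a calcineurin-responsive lacZ construct stimulated with calcium chloride; luminescent beta-galactosidase reporter signal in whole cells rather than isolated phosphatase activity; potency for inhibition where a drop in reporter signal means calcineurin blockade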
Chain of Serine/threonine-protein phosphatase (B9W6M3 whole entry): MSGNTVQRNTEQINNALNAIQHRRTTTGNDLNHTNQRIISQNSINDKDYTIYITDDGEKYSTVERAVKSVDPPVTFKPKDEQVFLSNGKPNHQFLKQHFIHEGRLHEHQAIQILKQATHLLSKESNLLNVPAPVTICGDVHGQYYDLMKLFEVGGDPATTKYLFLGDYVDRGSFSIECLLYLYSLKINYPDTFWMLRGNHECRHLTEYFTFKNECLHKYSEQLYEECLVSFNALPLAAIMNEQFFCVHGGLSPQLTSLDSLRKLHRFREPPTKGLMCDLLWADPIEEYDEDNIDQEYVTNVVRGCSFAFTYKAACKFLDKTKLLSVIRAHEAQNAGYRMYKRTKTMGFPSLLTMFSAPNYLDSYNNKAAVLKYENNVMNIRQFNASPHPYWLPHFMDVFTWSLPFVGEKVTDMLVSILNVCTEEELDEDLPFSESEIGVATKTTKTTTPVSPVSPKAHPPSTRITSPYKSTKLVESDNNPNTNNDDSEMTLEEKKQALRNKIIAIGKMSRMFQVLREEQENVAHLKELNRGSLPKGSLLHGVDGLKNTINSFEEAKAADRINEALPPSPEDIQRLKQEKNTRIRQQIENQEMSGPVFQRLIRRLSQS

[3] = C. albicans growth with fluconazole, confirmation, fluorescence, retest (AID 2467); assay type: functional, cell-based
[4] = biological target: T1, Heat shock factor protein 1 (Mus musculus, UniProt P38532); experiment: inhibition of MG132-induced HSE-luciferase signal, confirmation, cell-based, NIH3T3, luminescence, dose retest (AID 2382); assay type: functional;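 also: NIH3T3 fibroblasts with HSF1-driven luciferase reporter stressed by proteasome inhibitor MG132; luminescence from HSF1-driven luciferase expression after 8 hours of MG132 stress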
T1 sequence (P38532 whole entry): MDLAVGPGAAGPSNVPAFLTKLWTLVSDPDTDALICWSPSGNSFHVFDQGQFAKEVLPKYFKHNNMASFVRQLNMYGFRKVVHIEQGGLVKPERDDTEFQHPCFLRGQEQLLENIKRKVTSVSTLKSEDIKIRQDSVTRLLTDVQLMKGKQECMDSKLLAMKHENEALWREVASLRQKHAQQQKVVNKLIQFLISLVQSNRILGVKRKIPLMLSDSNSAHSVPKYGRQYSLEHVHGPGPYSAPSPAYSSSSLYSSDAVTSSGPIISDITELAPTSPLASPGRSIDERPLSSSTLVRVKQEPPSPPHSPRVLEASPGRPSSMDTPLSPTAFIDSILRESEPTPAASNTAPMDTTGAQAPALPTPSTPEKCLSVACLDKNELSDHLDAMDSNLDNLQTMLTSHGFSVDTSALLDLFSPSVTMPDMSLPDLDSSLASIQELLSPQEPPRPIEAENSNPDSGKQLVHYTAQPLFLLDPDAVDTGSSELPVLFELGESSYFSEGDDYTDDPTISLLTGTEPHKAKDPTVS

Estrogen receptor beta = Estrogen receptor beta (Homo sapiens, UniProt Q92731); experiment: ERβ–SRC-3 coactivator interaction inhibitors, confirmation, orthogonal assay, biochemical, ELISA, streptavidin-HRP readout (AID 1060)
Chain of Estrogen receptor beta (Q92731 whole entry): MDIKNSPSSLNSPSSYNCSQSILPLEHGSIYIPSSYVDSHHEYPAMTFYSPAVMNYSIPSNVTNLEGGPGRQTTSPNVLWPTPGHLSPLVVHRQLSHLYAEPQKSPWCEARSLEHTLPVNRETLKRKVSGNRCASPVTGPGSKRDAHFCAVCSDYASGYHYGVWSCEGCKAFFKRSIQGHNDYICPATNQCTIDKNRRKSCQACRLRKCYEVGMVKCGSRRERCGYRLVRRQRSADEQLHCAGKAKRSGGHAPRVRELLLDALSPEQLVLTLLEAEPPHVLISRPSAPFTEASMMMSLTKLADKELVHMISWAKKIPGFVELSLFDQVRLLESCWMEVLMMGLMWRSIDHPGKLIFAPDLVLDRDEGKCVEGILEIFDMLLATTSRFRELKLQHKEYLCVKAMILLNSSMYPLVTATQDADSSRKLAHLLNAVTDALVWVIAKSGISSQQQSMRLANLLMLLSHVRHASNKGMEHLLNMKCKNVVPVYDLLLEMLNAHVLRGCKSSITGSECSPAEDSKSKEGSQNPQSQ

[5] = NIH-3T3 fibroblast cytotoxicity, dose response, cytotoxicity control, cell-based, fluorescence, Alamar Blue, secondary assay (AID 2327); assay type: functional;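 also: NIH-3T3 mouse fibroblasts cultured with fluconazole at 8 µg/mL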
[6] = growth suppression of PTEN-null colon cells, dose response, cell-based, HCT116 PTEN knockout (AID 1047); assay type: functional;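 also: HCT116 colon tumor cells with PTEN knocked out; cells exposed to compound for 60 hours before readout; potency for loss of cell viability measured by luminescence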
[7] = inhibitors of intracellular T. cruzi replication, confirmation, NIH3T3 host cells, beta-gal luminescence (AID 2044); assay type: functional, cell-based;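 also: intracellular parasites grown in NIH/3T3 mouse fibroblasts as host cells; luminescent beta-galactosidase reporter signal from transgenic T. cruzi replicating inside host cells; inhibitors lower the luminescence signal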
[8] = biological target: T2, Replicative DNA helicase DnaB (Mycobacterium tuberculosis, UniProt P9WMR3); experiment: DnaB intein splicing inhibitors, dose response, biochemical, cell-free fluorescence (AID 449749); assay type: functional
T2 sequence (P9WMR3 whole entry): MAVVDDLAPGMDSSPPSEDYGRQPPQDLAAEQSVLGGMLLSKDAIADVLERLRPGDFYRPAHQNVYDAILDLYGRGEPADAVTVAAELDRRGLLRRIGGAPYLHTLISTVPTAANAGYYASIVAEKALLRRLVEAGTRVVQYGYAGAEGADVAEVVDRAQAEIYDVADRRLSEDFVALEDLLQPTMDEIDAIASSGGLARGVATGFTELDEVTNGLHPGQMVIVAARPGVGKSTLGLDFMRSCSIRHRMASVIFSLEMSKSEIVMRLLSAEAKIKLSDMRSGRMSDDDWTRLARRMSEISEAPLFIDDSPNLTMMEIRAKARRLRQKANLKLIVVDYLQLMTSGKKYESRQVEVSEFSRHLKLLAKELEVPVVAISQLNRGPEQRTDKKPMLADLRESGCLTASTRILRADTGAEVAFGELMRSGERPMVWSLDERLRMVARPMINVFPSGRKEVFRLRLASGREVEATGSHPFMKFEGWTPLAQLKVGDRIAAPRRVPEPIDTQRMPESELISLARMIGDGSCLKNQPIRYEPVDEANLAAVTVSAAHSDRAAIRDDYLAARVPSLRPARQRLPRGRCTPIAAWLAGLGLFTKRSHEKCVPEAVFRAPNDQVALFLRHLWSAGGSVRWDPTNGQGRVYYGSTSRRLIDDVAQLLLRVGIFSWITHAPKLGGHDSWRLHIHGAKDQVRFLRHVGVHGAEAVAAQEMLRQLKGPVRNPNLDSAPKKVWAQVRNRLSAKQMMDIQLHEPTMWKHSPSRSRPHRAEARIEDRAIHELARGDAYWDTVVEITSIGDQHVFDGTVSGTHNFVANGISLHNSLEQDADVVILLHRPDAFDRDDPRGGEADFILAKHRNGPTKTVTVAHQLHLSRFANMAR

[9] = growth suppression of beta-catenin-knockout colon cells, dose response, cell-based, HCT116, human colon tumor (AID 1045); assay type: functional;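 also: HCT116 colon tumor cells with beta catenin knocked out; cells exposed to compound for 60 hours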
Protein RecA = biological target: T3, Protein RecA (Mycobacterium tuberculosis, UniProt P9WHJ3); experiment: Fluorescence Cell-Free Homogeneous Dose Retest to Identify Inhibitors of RecA-Intein Splicing Activity. [Related pubchem assays (depositor defined):AID2097, AID2223, AID489010, AID492950]; assay type: functional
T3 sequence (P9WHJ3 whole entry): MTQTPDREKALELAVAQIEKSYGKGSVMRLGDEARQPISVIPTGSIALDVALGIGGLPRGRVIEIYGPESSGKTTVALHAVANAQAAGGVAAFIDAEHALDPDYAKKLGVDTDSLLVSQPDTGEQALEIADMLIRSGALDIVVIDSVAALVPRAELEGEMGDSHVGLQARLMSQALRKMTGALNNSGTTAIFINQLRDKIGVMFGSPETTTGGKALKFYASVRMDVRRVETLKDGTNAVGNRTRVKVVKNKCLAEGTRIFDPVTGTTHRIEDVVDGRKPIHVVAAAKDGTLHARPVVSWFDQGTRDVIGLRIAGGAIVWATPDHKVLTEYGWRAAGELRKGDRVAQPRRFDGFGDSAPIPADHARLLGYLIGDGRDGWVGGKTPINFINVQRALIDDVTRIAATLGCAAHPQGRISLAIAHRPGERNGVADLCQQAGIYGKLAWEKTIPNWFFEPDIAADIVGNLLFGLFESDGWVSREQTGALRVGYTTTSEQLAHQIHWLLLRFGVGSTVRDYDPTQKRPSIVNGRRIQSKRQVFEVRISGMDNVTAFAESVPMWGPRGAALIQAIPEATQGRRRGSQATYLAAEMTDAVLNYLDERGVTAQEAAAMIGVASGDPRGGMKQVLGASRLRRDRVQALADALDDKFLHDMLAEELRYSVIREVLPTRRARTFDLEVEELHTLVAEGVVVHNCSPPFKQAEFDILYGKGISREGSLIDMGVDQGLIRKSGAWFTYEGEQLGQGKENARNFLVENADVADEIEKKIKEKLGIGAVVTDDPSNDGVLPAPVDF

[10] = cytotoxicity toward NIH3T3 fibroblasts, dose response, counter-screen, cell-based, ATP luminescence, mouse fibroblasts (AID 2010); assay type: functional;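 also: cells exposed to compound for about 90 hours before reading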
Nonstructural protein 1 = Nonstructural protein 1 (Influenza A virus, UniProt Q194T2); assay type: functional, Influenza A virus (A/California/07/2009(H1N1))
Chain of Nonstructural protein 1 (Q194T2 whole entry, the tested form may be a part): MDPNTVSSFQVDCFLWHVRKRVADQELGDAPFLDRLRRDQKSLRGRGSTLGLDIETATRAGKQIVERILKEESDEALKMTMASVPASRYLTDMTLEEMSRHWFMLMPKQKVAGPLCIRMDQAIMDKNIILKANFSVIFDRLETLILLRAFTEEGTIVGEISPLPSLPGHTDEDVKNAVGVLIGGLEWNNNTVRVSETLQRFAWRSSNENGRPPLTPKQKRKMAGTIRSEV

Hexokinase-1 = biological target: T4, Hexokinase-1 (Homo sapiens, UniProt P19367); experiment: SAR analysis of small molecule inhibitors of hexokinase domain containing I (HKDC1) in the hexokinase 1 selectivity assay. [Related pubchem assays (depositor defined):AID493160, AID493190]; assay type: functional
T4 sequence (P19367 whole entry): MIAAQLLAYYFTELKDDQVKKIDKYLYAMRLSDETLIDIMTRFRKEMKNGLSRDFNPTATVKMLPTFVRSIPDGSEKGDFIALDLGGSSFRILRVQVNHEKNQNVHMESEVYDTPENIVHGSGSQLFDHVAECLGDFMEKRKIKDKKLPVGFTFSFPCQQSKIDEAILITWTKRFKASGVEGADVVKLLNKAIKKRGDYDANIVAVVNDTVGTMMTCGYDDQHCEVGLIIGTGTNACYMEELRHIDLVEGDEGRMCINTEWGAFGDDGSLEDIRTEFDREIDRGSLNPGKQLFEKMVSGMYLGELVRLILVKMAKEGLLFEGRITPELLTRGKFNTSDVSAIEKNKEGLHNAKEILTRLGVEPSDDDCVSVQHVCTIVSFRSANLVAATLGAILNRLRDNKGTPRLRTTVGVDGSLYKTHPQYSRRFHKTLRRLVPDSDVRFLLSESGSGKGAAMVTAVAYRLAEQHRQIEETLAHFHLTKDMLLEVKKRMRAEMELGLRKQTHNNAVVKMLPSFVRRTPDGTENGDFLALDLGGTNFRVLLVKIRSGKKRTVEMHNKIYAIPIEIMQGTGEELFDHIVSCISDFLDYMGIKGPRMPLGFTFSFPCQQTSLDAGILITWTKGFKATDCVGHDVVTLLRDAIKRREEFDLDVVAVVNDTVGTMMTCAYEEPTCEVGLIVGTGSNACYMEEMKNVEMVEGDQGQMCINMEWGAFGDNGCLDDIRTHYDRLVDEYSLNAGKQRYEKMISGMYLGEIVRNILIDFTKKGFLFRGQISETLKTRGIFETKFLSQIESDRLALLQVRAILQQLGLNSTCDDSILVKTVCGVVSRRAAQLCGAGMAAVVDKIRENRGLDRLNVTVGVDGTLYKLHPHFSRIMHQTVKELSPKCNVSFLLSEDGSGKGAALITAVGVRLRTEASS

Hexokinase HKDC1 = biological target: T5, Hexokinase HKDC1 (Homo sapiens, UniProt Q2TB90); experiment: SAR analysis of small molecule inhibitors of hexokinase domain containing I (HKDC1). [Related pubchem assays (depositor defined):AID493160, AID493190]; assay type: functional
T5 sequence (Q2TB90 whole entry): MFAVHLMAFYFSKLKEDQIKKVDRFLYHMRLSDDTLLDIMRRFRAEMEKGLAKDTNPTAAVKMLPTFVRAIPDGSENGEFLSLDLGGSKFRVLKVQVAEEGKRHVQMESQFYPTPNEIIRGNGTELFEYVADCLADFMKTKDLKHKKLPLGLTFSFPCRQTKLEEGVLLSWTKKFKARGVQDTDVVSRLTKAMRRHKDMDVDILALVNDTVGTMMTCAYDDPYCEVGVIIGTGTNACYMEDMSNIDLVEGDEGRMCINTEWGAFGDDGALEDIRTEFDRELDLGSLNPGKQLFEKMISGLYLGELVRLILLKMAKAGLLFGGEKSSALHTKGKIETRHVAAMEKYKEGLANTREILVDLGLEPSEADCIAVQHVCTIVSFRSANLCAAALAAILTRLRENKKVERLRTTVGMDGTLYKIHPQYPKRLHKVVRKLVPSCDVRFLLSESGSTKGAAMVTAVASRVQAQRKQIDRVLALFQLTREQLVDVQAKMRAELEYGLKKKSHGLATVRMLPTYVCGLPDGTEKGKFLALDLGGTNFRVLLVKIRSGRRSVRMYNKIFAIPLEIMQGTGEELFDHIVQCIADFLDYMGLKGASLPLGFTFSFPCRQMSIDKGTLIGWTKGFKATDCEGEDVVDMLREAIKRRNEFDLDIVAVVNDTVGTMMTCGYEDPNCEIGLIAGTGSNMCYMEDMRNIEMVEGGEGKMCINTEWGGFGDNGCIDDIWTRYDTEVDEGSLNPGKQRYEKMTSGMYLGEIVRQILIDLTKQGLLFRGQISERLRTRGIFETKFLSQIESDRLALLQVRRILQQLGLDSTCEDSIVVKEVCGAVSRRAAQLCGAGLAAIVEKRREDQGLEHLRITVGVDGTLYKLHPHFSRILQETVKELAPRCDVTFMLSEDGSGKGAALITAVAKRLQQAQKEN

Question: For `CCn1c(Sc2nc(C)nc3scc(-c4cccs4)c23)n[nH]c1=O`, which EC50 [1] is on record?
Answer: 30.7 µM (active)

Question: And the EC50 [2]?
Answer: > 180 µM (inactive)

Question: For `CCN1CCN(C(c2cccnc2)c2cc(Cl)c3cccnc3c2O)CC1` (centres undefined), which EC50 [1] is on record?
Answer: > 150 µM (inactive)

Question: And the EC50 [3]?
Answer: 0.916 µM (active)

Question: And the EC50 [4]?
Answer: > 195 µM (not active)

Question: What about the IC50 (Estrogen receptor beta) of the same compound?
Answer: 2.39 µM (not active)

Question: What about the EC50 [5] of the same compound?
Answer: > 150 µM (inactive)

Question: What about the EC50 [6] of the same compound?
Answer: 12.7 µM (active)

Question: And the EC50 [7]?
Answer: 2.13 µM (active)

Question: What about the AC50 [8] of the same compound?
Answer: > 380 µM (inactive)

Question: What about the EC50 [9] of the same compound?
Answer: 15.1 µM (active)

Question: What about the EC50 [2] of the same compound?
Answer: > 180 µM (inactive)

Question: And the EC50 (Protein RecA)?
Answer: 1.8 µM (active)

Question: And the EC50 [10]?
Answer: > 60 µM (not active)

Question: What about the IC50 (Nonstructural protein 1) of the same compound?
Answer: 17.8 µM (active)

Question: Which results are given for `COc1cccc(/C=C/c2nc3ccccc3c(=O)n2Cc2ccccc2)c1`?
Answer: IC50 (Hexokinase-1): > 80 µM (inactive); IC50 (Hexokinase HKDC1): > 80 µM (inactive)

Question: With `COc1cc2c(cc1OC)-c1cc(N3CCc4ccccc4C3)nc(=O)n1CC2` as the compound, how does the IC50 (Hexokinase-1) read?
Answer: 69 µM (inactive)

Question: And the IC50 (Hexokinase HKDC1)?
Answer: 65.7 µM (inactive)

— ChEMBL document CHEMBL1201862, “PubChem BioAssay data set” (2004)
